The test system of one assay is TNF. Nature of the assay: Serum and vaginal tissue TNF after intravaginal dosing of rats (ELISA). The class given is in vivo, rat. The conditions noted are these: cotton pellet device removed after 2 hours; for TNF Tissue: vaginal tissue, per 200 mg. How it is done: (§1) In the examples below the serum and intravaginal cytokine data were obtained using the following general test method.
(§2) Rats were acclimated to collars (Lomir Biomedical, Malone, N.Y.) around the neck on two consecutive days prior to actual dosing. Rats were collared to prevent removal of the device and ingestion of the drug. Animals were then dosed intravaginally with a removable device or with […] of cream. Single dosed rats received one intravaginal dose with samples collected at various times following dosing. Blood was collected by cardiac puncture. Blood was allowed to clot briefly at room temperature and serum was separated from the clot via centrifugation. The serum was stored at −20° C. until it was analyzed for cytokine concentrations.
(§3) Following blood collection, the rats were euthanized and their vaginal tract, including the cervix, was then removed and the tissue was weighed, placed in a sealed 1.8 mL cryovial and flash frozen in liquid nitrogen. The frozen vaginal tissue sample was then suspended in 1.0 mL of RPMI medium (Celox, St. Paul, Minn.) containing 10% fetal bovine serum (Atlas, Fort Collins, Colo.), 2 mM L-glutamine, penicillin/streptomycin and 2-mercaptoethanol (RPMI complete) combined with a protease inhibitor cocktail set III (Calbiochem, San Diego, Calif.). The tissue was homogenized using a Tissue Tearor (Biospec Products, Bartlesville, Okla.) for approximately one minute. The tissue suspension was then centrifuged at 2000 rpm for 10 minutes under refrigeration to pellet the debris, and the supernatant collected and stored at −20° C. until analyzed for cytokine concentrations.
(§4) ELISA kits for rat TNF were purchased from BD PharMingen (San Diego, Calif.) and the rat MCP-1 ELISA kits were purchased from BioSource Intl. (Camarillo, Calif.).
(§5) Both kits were performed according to manufacturer's specifications. Results for both TNF and MCP-1 are expressed in pg/mL and are normalized per 200 mg of tissue. […] “Post dosing” means after treatment initiation. For example, if a device was inserted a time 0 hours and removed at 2 hours and cytokines were assayed at 4 hours, then the cytokines were assayed at 4 hours post dosing.
A general note: In an ELISA, binding on a coated surface is turned into a signal by an enzyme label.

The next assay has as its system MCP-1. Nature of the assay: Serum and vaginal tissue MCP-1 after intravaginal dosing of rats (ELISA). Particulars: cotton pellet device removed after 2 hours; for MCP-1 Tissue: vaginal tissue, per 200 mg. The assay is classed as in vivo, rat. How it is done: as §1, §2, §3, §4, §5
Where [1] appears, read: 4 hours post dosing, 1% in 50/50 ISA/IPM, Example 6.
[2] abbreviates: 2 hr post dose, 5% in 50/50 ISA/IPM, Example 7.
The mark [3] stands for this setting: 4 hr post dose, 5% in 50/50 ISA/IPM, Example 7.
Setting [4] is: 6 hr post dose, 5% in 50/50 ISA/IPM, Example 7.

In the case of `COCCc1nc2c(N)nc3ccccc3c2n1CCCCNS(C)(=O)=O` [IRM 4, N-{4-[4-amino-2-(2-methoxyethyl)-1H-imidazo[4,5-c]quinolin-1-yl]butyl}methanesulfonamide], in the assay with TNF (setting [1]), the “TNF Serum” value stood at 0 pg/mL and the “TNF Tissue” value stood at 109 pg/mL. In the assay on MCP-1 (setting [1]), the “MCP-1 Serum” value was 105 pg/mL and the “MCP-1 Tissue” value was 713 pg/mL.
With `CCCCNC(=O)NCCCn1c(CCCC)nc2c(N)nc3ccccc3c21` [IRM 5], in the assay with TNF (setting [1]), the “TNF Serum” value is reported as 1 pg/mL and the “TNF Tissue” value was 358 pg/mL. For the same compound, in the assay with MCP-1 (setting [1]), the “MCP-1 Serum” value turned out to be 108 pg/mL and the “MCP-1 Tissue” value is reported as 958 pg/mL.
Regarding `CCCCc1nc2c(N)nc3ccccc3c2n1CCS(=O)(=O)C(C)C` [IRM 6, 2-butyl-1-{2-[(1-methylethyl)sulfonyl]ethyl}-1H-imidazo[4,5-c]quinolin-4-amine], in the assay with TNF (setting [1]), the “TNF Serum” value came out at 1 pg/mL and the “TNF Tissue” value came out at 491 pg/mL. For the same compound, in the assay on MCP-1 (setting [1]), the “MCP-1 Serum” value is on record as 114 pg/mL and the “MCP-1 Tissue” value amounted to 1840 pg/mL.
`CCOCc1nc2c(N)nc3ccccc3c2n1CCNC(=O)NC(C)C` [IRM 7, N-{2-[4-amino-2-(ethoxymethyl)-1H-imidazo[4,5-c]quinolin-1-yl]ethyl}-N′-isopropylurea]: the “TNF Serum” value in the assay with TNF (setting [2]) turned out to be 1 pg/mL; in the assay on TNF (setting [1]), 0 pg/mL; in the assay with TNF (setting [3]), 0 pg/mL; in the assay on TNF (setting [4]) it was 2 pg/mL. The “TNF Tissue” value in the assay with TNF (setting [2]) was found to be 512 pg/mL; in the assay on TNF (setting [1]), 219 pg/mL; in the assay on TNF (setting [3]), 460 pg/mL; in the assay with TNF (setting [4]), 267 pg/mL. Also, the “MCP-1 Serum” value was 92 pg/mL in the assay with MCP-1 (setting [2]), 93 pg/mL in the assay with MCP-1 (setting [1]), 112 pg/mL in the assay on MCP-1 (setting [3]) and 140 pg/mL in the assay with MCP-1 (setting [4]). For the same compound, the “MCP-1 Tissue” value in the assay on MCP-1 (setting [2]) came out at 498 pg/mL; in the assay on MCP-1 (setting [1]) it was 642 pg/mL; with MCP-1 (setting [3]), 851 pg/mL; in the assay with MCP-1 (setting [4]), 670 pg/mL.
`CCOCc1nc2c(N)nc3ccccc3c2n1CCOCCNC(=O)Nc1ccccc1` [IRM 8, N-(2-{2-[4-amino-2-(ethoxymethyl)-1H-imidazo[4,5-c]quinolin-1-yl]ethoxy}ethyl)-N′-phenylurea]: in the assay on TNF (setting [1]), the “TNF Serum” value is listed as 0 pg/mL and the “TNF Tissue” value came out at 294 pg/mL. Moreover, in the assay on MCP-1 (setting [1]), the “MCP-1 Serum” value stood at 82 pg/mL and the “MCP-1 Tissue” value worked out at 331 pg/mL.
Turning to `Nc1nc2ccccc2c2c1ncn2CCOCc1ccncc1` [IRM 9, 1-[2-(pyridin-4-ylmethoxy)ethyl]-1H-imidazo[4,5-c]quinolin-4-amine], the “TNF Serum” value in the assay with TNF (setting [2]) worked out at 30 pg/mL; in the assay with TNF (setting [3]), 4 pg/mL; in the assay with TNF (setting [4]) it was 8 pg/mL. For the same compound, the “TNF Tissue” value turned out to be 597 pg/mL in the assay on TNF (setting [2]), 697 pg/mL with TNF (setting [3]) and 248 pg/mL in the assay on TNF (setting [4]). Moreover, the results for the “MCP-1 Serum” value in the assay on MCP-1 (setting [2]), with MCP-1 (setting [3]) and with MCP-1 (setting [4]) were 85 pg/mL, 131 pg/mL and 180 pg/mL, respectively. The “MCP-1 Tissue” value in the assay on MCP-1 (setting [2]) was found to be 328 pg/mL; with MCP-1 (setting [3]), 1556 pg/mL; in the assay on MCP-1 (setting [4]), 850 pg/mL.
`CCCCc1nc2c(N)nc3ccccc3c2n1CCCS(C)(=O)=O` [IRM 10, 2-butyl-1-[3-(methylsulfonyl)propyl]-1H-imidazo[4,5-c]quinoline-4-amine]: the “TNF Serum” value was 16 pg/mL in the assay with TNF (setting [2]), 25 pg/mL with TNF (setting [3]) and 10 pg/mL with TNF (setting [4]). Moreover, the entries for the “TNF Tissue” value in the assay on TNF (setting [2]), in the assay with TNF (setting [3]) and with TNF (setting [4]) were 1110 pg/mL, 887 pg/mL and 519 pg/mL, respectively. In addition, the “MCP-1 Serum” value with MCP-1 (setting [2]) worked out at 111 pg/mL; in the assay on MCP-1 (setting [3]) it was 160 pg/mL; with MCP-1 (setting [4]), 155 pg/mL. Besides, the results for the “MCP-1 Tissue” value in the assay on MCP-1 (setting [2]), with MCP-1 (setting [3]) and with MCP-1 (setting [4]) were 739 pg/mL, 1440 pg/mL and 975 pg/mL, respectively.

The record behind these values is patent publication US20060216333A1, “Methods related to the treatment of mucosal associated conditions” (priority 2003, published 2006).
